This note sets out measurements from ChEMBL document CHEMBL3991601, “The target landscape of clinical kinase drugs” (Science, 2017).

The target of one test is LIM domain kinase 2 (Homo sapiens, UniProt P53671).
Test [1] deals with T1, Exosome RNA helicase MTR4 (Homo sapiens, UniProt P42285).
T1 sequence (P42285 whole entry): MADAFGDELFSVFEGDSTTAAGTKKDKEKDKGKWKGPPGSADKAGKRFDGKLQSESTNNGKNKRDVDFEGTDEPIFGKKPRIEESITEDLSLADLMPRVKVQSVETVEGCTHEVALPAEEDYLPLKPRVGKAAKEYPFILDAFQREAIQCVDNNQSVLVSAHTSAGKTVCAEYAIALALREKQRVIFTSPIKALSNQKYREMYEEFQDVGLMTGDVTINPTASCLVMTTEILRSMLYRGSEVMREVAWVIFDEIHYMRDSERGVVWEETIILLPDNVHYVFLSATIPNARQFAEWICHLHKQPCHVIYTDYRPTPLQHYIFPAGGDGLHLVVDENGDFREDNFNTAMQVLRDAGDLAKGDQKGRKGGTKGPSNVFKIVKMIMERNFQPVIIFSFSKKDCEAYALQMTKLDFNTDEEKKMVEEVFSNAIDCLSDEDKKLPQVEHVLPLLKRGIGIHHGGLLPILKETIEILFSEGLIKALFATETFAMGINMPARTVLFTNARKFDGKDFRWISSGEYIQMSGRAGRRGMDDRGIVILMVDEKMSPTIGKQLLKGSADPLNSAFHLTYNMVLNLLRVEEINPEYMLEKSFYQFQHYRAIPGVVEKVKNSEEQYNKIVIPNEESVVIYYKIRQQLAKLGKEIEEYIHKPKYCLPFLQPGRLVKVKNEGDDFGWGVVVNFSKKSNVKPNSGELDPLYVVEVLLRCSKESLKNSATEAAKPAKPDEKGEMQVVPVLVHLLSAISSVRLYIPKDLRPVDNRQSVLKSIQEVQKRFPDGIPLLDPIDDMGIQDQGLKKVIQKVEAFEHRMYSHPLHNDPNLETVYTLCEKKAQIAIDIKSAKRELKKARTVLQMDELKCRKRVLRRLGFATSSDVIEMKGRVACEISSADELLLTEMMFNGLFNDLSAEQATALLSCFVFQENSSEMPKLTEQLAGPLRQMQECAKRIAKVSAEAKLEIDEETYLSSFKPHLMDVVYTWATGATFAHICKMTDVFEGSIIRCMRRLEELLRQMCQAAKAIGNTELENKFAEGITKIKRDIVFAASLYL

In test [2] the target is T2, Dual specificity mitogen-activated protein kinase kinase 5 (Homo sapiens, UniProt Q13163).
T2 sequence (Q13163 whole entry): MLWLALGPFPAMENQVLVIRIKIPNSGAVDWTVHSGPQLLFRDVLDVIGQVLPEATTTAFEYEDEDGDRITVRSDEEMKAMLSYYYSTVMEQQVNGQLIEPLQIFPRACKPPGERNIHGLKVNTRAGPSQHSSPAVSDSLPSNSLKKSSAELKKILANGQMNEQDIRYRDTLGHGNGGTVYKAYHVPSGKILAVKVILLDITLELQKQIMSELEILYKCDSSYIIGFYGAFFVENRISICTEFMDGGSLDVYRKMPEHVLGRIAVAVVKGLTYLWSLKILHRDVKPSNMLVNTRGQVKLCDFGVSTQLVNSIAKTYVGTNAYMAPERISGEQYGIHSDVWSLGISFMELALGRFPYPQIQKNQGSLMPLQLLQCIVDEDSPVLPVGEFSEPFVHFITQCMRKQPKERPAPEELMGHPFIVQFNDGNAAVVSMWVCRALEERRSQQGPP

For test [3], the target named is Tyrosine-protein kinase ABL2 (Homo sapiens, UniProt P42684).
Another test addresses T3, Ephrin type-B receptor 6 (Homo sapiens, UniProt O15197).
T3 sequence (O15197 whole entry): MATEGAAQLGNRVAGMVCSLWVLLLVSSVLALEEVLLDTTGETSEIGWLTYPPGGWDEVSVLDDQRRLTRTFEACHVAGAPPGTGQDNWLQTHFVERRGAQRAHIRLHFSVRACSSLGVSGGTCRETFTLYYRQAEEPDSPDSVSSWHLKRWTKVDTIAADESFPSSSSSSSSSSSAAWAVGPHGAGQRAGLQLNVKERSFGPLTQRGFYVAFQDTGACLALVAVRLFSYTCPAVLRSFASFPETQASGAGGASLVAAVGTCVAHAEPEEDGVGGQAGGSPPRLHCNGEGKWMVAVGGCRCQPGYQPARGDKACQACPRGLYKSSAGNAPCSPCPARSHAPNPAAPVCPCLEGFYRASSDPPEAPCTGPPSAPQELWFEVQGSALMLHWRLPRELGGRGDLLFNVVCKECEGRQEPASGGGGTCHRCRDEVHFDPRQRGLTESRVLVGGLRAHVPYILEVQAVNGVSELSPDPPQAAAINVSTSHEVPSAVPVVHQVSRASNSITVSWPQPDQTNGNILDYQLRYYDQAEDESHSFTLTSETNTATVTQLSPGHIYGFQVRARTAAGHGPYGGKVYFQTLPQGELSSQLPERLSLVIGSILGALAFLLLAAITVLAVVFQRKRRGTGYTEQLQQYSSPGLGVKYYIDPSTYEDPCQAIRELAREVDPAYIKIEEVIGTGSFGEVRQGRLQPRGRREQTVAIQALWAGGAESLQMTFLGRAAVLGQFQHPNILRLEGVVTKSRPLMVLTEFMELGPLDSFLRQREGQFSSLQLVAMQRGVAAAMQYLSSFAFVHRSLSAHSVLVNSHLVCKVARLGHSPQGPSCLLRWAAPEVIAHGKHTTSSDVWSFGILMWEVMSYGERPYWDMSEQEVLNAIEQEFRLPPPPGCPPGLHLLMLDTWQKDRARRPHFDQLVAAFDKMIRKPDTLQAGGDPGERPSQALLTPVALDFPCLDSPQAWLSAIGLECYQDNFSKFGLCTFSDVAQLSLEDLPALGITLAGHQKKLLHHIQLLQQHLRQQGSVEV

The next test addresses Actin-related protein 2 (Homo sapiens, UniProt P61160).
In test [4] the target is T4, Dual specificity mitogen-activated protein kinase kinase 3 (Homo sapiens, UniProt P46734).
T4 sequence (P46734 whole entry): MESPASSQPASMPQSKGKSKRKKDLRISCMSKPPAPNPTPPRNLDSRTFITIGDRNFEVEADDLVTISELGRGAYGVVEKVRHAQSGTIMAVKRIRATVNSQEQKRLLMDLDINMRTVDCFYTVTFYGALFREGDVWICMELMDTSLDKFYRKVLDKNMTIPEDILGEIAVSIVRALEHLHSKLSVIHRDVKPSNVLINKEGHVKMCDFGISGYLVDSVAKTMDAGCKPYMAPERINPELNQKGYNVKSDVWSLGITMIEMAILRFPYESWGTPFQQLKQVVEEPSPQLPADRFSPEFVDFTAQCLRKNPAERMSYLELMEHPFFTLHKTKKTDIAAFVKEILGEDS

Calls of active or inactive are those of the source. For most assays here, no stated cut-off is given here; in the data, actives have a measured Kd and inactives only a lower limit. Bounds are passed on as bounds.

Tyrosine-protein kinase ABL2, sequence (P42684 whole entry): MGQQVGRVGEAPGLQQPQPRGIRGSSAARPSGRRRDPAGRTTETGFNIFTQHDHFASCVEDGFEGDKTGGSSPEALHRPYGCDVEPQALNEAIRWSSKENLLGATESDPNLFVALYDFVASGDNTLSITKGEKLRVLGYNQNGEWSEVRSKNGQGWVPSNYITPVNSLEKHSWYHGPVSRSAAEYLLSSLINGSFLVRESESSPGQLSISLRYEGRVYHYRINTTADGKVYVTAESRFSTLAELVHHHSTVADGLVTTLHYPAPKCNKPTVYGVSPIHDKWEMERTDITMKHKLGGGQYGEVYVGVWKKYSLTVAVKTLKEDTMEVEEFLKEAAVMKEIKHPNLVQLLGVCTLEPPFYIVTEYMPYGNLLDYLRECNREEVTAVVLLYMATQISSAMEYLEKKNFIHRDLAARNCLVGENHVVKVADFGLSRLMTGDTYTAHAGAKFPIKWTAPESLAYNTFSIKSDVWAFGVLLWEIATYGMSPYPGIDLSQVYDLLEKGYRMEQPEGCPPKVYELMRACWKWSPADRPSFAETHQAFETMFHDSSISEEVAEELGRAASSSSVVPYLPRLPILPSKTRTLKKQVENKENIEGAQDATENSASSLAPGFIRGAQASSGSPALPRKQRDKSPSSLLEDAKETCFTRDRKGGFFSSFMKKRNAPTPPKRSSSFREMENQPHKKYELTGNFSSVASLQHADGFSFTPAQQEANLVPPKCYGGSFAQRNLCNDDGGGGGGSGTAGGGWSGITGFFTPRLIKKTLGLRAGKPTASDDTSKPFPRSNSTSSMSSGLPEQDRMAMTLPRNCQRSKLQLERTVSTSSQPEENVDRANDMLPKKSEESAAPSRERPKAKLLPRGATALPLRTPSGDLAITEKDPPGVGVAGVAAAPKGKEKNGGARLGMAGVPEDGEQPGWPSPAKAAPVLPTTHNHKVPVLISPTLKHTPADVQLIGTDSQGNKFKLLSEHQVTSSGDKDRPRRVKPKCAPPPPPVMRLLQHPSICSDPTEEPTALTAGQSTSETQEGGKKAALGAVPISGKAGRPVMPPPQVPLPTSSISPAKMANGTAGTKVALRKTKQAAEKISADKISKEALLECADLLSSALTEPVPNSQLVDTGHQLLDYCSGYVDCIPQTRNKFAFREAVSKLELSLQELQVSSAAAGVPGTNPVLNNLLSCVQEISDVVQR
LIM domain kinase 2, sequence (P53671 whole entry, the tested form may be a part): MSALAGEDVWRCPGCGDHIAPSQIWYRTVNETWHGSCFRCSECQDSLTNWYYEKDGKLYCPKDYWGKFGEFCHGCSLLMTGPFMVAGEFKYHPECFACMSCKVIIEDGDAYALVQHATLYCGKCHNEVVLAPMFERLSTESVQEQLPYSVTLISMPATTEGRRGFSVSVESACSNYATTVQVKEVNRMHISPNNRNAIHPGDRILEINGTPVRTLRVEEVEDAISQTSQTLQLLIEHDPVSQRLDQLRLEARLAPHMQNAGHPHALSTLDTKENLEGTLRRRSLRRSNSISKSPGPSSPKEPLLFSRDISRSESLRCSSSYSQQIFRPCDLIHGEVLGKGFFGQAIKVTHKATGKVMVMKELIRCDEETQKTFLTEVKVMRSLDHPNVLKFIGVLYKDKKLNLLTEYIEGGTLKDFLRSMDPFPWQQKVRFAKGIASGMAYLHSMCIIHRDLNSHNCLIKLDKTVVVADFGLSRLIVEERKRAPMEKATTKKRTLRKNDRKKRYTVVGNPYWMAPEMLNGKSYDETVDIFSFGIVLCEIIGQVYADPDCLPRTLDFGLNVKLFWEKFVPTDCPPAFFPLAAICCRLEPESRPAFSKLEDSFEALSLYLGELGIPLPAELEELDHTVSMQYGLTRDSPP

Take `COc1cccc2cc(-c3nc([C@H]4CC[C@H](C(=O)O)CC4)n4ncnc(N)c34)[nH]c12` [OSI-027]: the Kd at LIM domain kinase 2 was > 30 µM (inactive); in test [1], > 30 µM (inactive); in test [2], 4.91 µM (active); in test [3] it was > 30 µM (inactive); on Ephrin type-B receptor 6 it was > 30 µM (inactive); on Actin-related protein 2, > 30 µM (inactive). Besides, in test [4], the Kd is > 30 µM (inactive).

As to `C[C@]1(O)C[C@@H](c2nc(-c3ccc4ccc(-c5ccccc5)nc4c3)c3c(N)nccn32)C1` [LINSITINIB], the Kd on LIM domain kinase 2 was > 30 µM (inactive); in test [1], > 30 µM (inactive); in test [2] it was 6.56 µM (active); in test [3] it was > 30 µM (inactive); at Ephrin type-B receptor 6 it was > 30 µM (inactive); on Actin-related protein 2 it was > 30 µM (inactive). For the same compound, the Kd in test [4] was > 30 µM (inactive).

In the case of `COc1ccc2c(OCc3nnc4ccc(-c5ccccc5)nn34)ccnc2c1` [AMG-208], the Kd (at LIM domain kinase 2; in test [1]; in test [2]; in test [3]; at Ephrin type-B receptor 6; at Actin-related protein 2) was > 30 µM (inactive) each time. The Kd in test [4] was > 30 µM (inactive).

As for `CN(c1ncccc1CNc1nc(Nc2ccc3c(c2)CC(=O)N3)ncc1C(F)(F)F)S(C)(=O)=O` [PF-00562271], the Kd (at LIM domain kinase 2; in test [1]; in test [2]; in test [3]; on Ephrin type-B receptor 6; at Actin-related protein 2) was > 30 µM (inactive) in each case. Moreover, in test [4], the Kd was > 30 µM (inactive).

For the compound `COc1cc2ncnc(Nc3ccc(F)c(Cl)c3)c2cc1NC(=O)/C=C/CN1CCCCC1` [DACOMITINIB ANHYDROUS], the Kd (at LIM domain kinase 2; in test [1]; in test [2]; in test [3]; on Ephrin type-B receptor 6; on Actin-related protein 2) was > 30 µM (inactive) throughout. For the same compound, the Kd in test [4] was > 30 µM (inactive).

As to `O=C(NOC[C@H](O)CO)c1ccc(F)c(F)c1Nc1ccc(I)cc1F` [MIRDAMETINIB], the Kd at LIM domain kinase 2 is > 30 µM (inactive); in test [1], > 30 µM (inactive); in test [2], 0.808 µM (active); in test [3] it was > 30 µM (inactive); on Ephrin type-B receptor 6 it was > 30 µM (inactive); on Actin-related protein 2 it was > 30 µM (inactive). Besides, the Kd in test [4] was > 30 µM (inactive).

With `COc1cc2nccc(Oc3ccc(NC(=O)C4(C(=O)Nc5ccc(F)cc5)CC4)cc3)c2cc1OC` [CABOZANTINIB], the Kd at LIM domain kinase 2 is > 30 µM (inactive); in test [1], > 30 µM (inactive); in test [2] it was 2.39 µM (active); in test [3], 0.918 µM (active); at Ephrin type-B receptor 6, > 30 µM (inactive); on Actin-related protein 2 it was > 30 µM (inactive). In test [4], the Kd was > 30 µM (inactive).

For `NC[C@@](O)(c1ccc(Cl)cc1)c1ccc(-c2cn[nH]c2)cc1` [AT-13148], the Kd (at LIM domain kinase 2; in test [1]; in test [2]; in test [3]; on Ephrin type-B receptor 6; at Actin-related protein 2) was > 30 µM (inactive) in each case. For the same compound, the Kd in test [4] was > 30 µM (inactive).
